From ChEMBL document CHEMBL6114992, “Design, synthesis, biological evaluation, and mechanism of action of new pyrazines as anticancer agents in vitro and in vivo” (Bioorg Med Chem, 2025)

Assays:
Format in all cases: functional, cell-based
SK-OV-3 = test: Antiproliferative activity against human SK-OV-3 cells assessed as inhibition of cell growth incubated for 72 hrs by MTT assay; conditions: SK-OV-3, 72 h
[1] = Antiproliferative activity against human SK-OV-3/Taxol cells assessed as inhibition of cell growth incubated for 72 hrs by MTT assay; conditions: SK-OV-3, 72 h
U-937 = test: Antiproliferative activity against human U-937 cells assessed as inhibition of cell growth incubated for 72 hrs by MTT assay; conditions: U-937, 72 h
THP-1 = test: Antiproliferative activity against human THP-1 cells assessed as inhibition of cell growth incubated for 72 hrs by MTT assay; conditions: THP-1, 72 h
KG-1 = test: Antiproliferative activity against human KG-1 cells assessed as inhibition of cell growth incubated for 72 hrs by MTT assay; conditions: KG-1, 72 h

Row | SMILES | IC50 (SK-OV-3) | IC50 [1] | IC50 (U-937) | IC50 (THP-1) | IC50 (KG-1)
1 | O=C(/C=C/c1ccccc1N1CCOCC1)c1cnccn1 | 2.43 µM | 3.04 µM | 7.58 µM | 8.39 µM | 2.13 µM
2 | O=C(/C=C/c1ccc(F)cc1)c1cnccn1 | > 50 µM | > 50 µM | > 50 µM | > 50 µM | > 50 µM
3 | CCc1nccnc1C(=O)/C=C/c1ccc(Br)cc1 | 3.88 µM | 5.93 µM | 1.93 µM | 5.34 µM | 9.31 µM
4 | CSc1ccc(/C=C/C(=O)c2nccnc2C)cc1 | 4.72 µM | 6.8 µM | 3.9 µM | 6.01 µM | 6.84 µM
5 | Cc1nccnc1C(=O)/C=C/c1cccc(F)c1 | 4.39 µM | 5.33 µM | 2.41 µM | 2.12 µM | 1.93 µM
6 | COc1ccc(/C=C/C(=O)c2cnccn2)cc1OC | > 50 µM | > 50 µM | 4.79 µM | 6.55 µM | 4.84 µM
7 | Cc1nccnc1C(=O)/C=C/c1ccc(-c2ccccc2)cc1 | 1.66 µM | 1.67 µM | 2.38 µM | 7.63 µM | 3.25 µM
8 | CCc1nccnc1C(=O)/C=C/c1cccs1 | 9.89 µM | 10.9 µM | 10 µM | 10.3 µM | 19.6 µM
9 | O=C(/C=C/c1csc2ccccc12)c1cnccn1 | 14.1 µM | 15.1 µM | 14 µM | 8.76 µM | 6.08 µM
10 | Cc1ccc(/C=C/C(=O)c2cnccn2)cc1 | 10.1 µM | 16.6 µM | 23 µM | 19.9 µM | 11.4 µM
11 | Cc1nccnc1C(=O)/C=C/c1ccc(S(C)(=O)=O)cc1 | 3.21 µM | 3.31 µM | 0.76 µM | 1.46 µM | 4.37 µM
12 | CCc1nccnc1C(=O)/C=C/c1ccccc1C | 8.68 µM | 10.8 µM | 3.43 µM | 4.91 µM | 22.9 µM
13 | COc1ccc(/C=C/C(=O)c2cnccn2)cc1 | 21.9 µM | 21.1 µM | 15.2 µM | 10.3 µM | 8.71 µM
14 | CCc1nccnc1C(=O)/C=C/c1ccc(Cl)cc1 | 7.08 µM | 6.72 µM | 2.3 µM | 4.7 µM | 3.67 µM
15 | CCc1nccnc1C(=O)/C=C/c1ccc(N(CC)CC)cc1 | > 50 µM | > 50 µM | 30.4 µM | 29.5 µM | 24.7 µM
16 | Cc1nccnc1C(=O)/C=C/c1cccc([N+](=O)[O-])c1 | 5.62 µM | 6.38 µM | 2.46 µM | 2.23 µM | 4.76 µM
17 | O=C(/C=C/c1ccccc1F)c1cnccn1 | 3.88 µM | 6.18 µM | 11.9 µM | 11.9 µM | 9.89 µM
18 | CCc1nccnc1C(=O)/C=C/c1ccccc1 | 4.54 µM | 5.4 µM | 1.99 µM | 23.8 µM | 3.71 µM
19 | Cc1nccnc1C(=O)/C=C/c1ccc[nH]1 | 4.81 µM | 5.38 µM | 6.21 µM | 5.72 µM | 7.15 µM
20 | CCc1nccnc1C(=O)/C=C/c1ccc(C)cc1 | 6.26 µM | 7.33 µM | 9.32 µM | 10.5 µM | 10 µM
21 | Cc1nccnc1C(=O)/C=C/c1ccc(Br)cc1 | 12.7 µM | 13.7 µM | 11.3 µM | 31.1 µM | 20.9 µM
22 | Cc1nccnc1C(=O)/C=C/c1csc2ccccc12 | 4.78 µM | 3.28 µM | 1.5 µM | 2.07 µM | 1.54 µM
23 | Cc1nccnc1C(=O)/C=C/c1ccc(C(C)(C)C)cc1 | 16.6 µM | 14.2 µM | 18.5 µM | 27.2 µM | 44.1 µM
24 | O=C(/C=C/c1ccc(-c2ccccc2)cc1)c1cnccn1 | 16.6 µM | 16.3 µM | 31.8 µM | > 50 µM | > 50 µM
25 | N#Cc1ccc(/C=C/C(=O)c2cnccn2)cc1 | 11.2 µM | 12.6 µM | 23.2 µM | 16.2 µM | 15.9 µM
26 | O=C(/C=C/C=C/c1ccccc1)c1cnccn1 | > 50 µM | > 50 µM | 22.4 µM | 14.1 µM | 22.3 µM
27 | Cc1nccnc1C(=O)/C=C/c1cccc(Cl)c1 | 2.02 µM | 1.57 µM | 1.6 µM | 1.35 µM | 2.15 µM
28 | Cc1cccc(/C=C/C(=O)c2nccnc2C)c1 | 2.37 µM | 1.55 µM | 3.37 µM | 5 µM | 5.43 µM
